From ChEMBL document CHEMBL4308846, “How Selective Are Pharmacological Inhibitors of Cell-Cycle-Regulating Cyclin-Dependent Kinases?” (J Med Chem, 2018)
Activity calls are given as the source filed them. No cut-off for these calls is given here.

Key:
HCT-116 [1] = assay: Induction of cell cycle arrest in human HCT116 cells assessed as accumulation at 8N stage at 1.25 to 5 uM after 24 hrs by propidium iodide-staining based flow cytometry; format: functional
HCT-116 [2] = assay: Induction of cell cycle arrest in human HCT116 cells assessed as accumulation at G2/M phase after 24 hrs by propidium iodide-staining based flow cytometry; format: functional
Aurora kinase A = molecular target: T1, Aurora kinase A (Homo sapiens, UniProt O14965); assay: Inhibition of GST-tagged AURORA A (unknown origin) expressed in baculovirus infected Sf9 cells using MBP as substrate
T1 sequence (O14965 whole entry): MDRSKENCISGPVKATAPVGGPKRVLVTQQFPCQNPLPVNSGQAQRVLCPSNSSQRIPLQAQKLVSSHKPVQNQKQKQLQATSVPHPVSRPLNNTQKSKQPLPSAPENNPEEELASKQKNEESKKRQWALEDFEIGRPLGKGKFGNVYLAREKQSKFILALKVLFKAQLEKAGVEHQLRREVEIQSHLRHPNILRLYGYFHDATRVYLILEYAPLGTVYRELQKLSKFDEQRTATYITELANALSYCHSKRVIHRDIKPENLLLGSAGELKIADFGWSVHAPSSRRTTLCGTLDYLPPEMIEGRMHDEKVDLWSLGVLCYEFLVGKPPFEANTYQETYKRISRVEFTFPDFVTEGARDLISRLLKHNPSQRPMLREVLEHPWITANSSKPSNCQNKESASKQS

Aurora kinase B [3] = molecular target: T2, Aurora kinase B (Homo sapiens, UniProt Q96GD4); assay: Inhibition of AURORA B in human HCT116 cells assessed as reduction in histone H3 phosphorylation at S10 residues after 24 hrs by Western blot analysis; format: cell-based
[4] = molecular target: Cyclin-dependent kinase 1 (Homo sapiens) (UniProt P06493); assay: Inhibition of CDK1 (unknown origin) at 10 uM
Homo sapiens [5] = species: Homo sapiens; assay: Selectivity index, ratio of IC50 for inhibition of His-tagged CDK1/cyclin B1 (unknown origin) expressed in Baculovirus infected Sf9 cells to IC50 for inhibition of GST-tagged AURORA B (unknown origin) expressed in baculovirus infected Sf9 cells
Homo sapiens [6] = species: Homo sapiens; assay: Selectivity index, ratio of IC50 for inhibition of His-tagged CDK1/cyclin B1 (unknown origin) expressed in Baculovirus infected Sf9 cells to IC50 for inhibition of GST-tagged AURORA A (unknown origin) expressed in baculovirus infected Sf9 cells
CDK2/Cyclin A2 = CDK2/Cyclin A2 (Homo sapiens, UniProt P24941)
[7] = molecular target: Cyclin-dependent kinase 2 (Homo sapiens, UniProt P24941)
[8] = molecular target: Cyclin-dependent kinase 1/cyclin B1 (Homo sapiens, UniProt P06493); assay: biochemical
[9] = molecular target: Cyclin-dependent kinase 2/cyclin E1 (Homo sapiens, UniProt P24941); assay: biochemical
[10] = molecular target: Cyclin-dependent kinase 4/cyclin D1 (Homo sapiens, UniProt P11802); assay: biochemical
[11] = molecular target: Cyclin-dependent kinase 5/CDK5 activator 1 (Homo sapiens, UniProt Q00535); assay: biochemical
CDK7/Cyclin H/MNAT1 = CDK7/Cyclin H/MNAT1 (Homo sapiens, UniProt P50613); assay: biochemical
CDK9/cyclin T1 = CDK9/cyclin T1 (Homo sapiens, UniProt P50750); assay: biochemical
Aurora kinase B [12] = molecular target: T2, Aurora kinase B; assay: biochemical
HCT-116 [13] = assay: Induction of cell cycle arrest in human HCT116 cells assessed as accumulation at G2/M phase at 5.9 to […] after 24 hrs by propidium iodide-staining based flow cytometry; format: functional
HCT-116 [14] = assay: Induction of cell cycle arrest in human HCT116 cells assessed as accumulation at G2/M phase at 0.07 to 0.8 uM after 24 hrs by propidium iodide-staining based flow cytometry relative to control; format: functional
[15] = molecular target: T3, Cyclin-dependent kinase 5/CDK5 activator 1 (Homo sapiens) (UniProt Q00535+Q15078); assay: Inhibition of CDK5/p25 in human HCT116 cells assessed as induction of dephosphorylation of FAK at Ser732 residue at 0.5 to 1 uM after 24 hrs by Western blot analysis; format: cell-based
[16] = molecular target: Cyclin-dependent kinase 7 (Homo sapiens) (UniProt P50613); assay: Inhibition of CDK7 in human HCT116 cells assessed as induction of dephosphorylation of RNA polymerase 2 S2/S5 residues at 0.5 to 1 uM after 24 hrs by Western blot analysis; format: cell-based
[17] = molecular target: Cyclin-dependent kinase 9 (Homo sapiens) (UniProt P50750); assay: Inhibition of CDK9 in human HCT116 cells assessed as induction of dephosphorylation of RNA polymerase 2 S2/S5 residues at 0.5 to 1 uM after 24 hrs by Western blot analysis; format: cell-based
HCT-116 [18] = assay: Induction of cell cycle arrest in CDK2 knocked out human HCT116 cells assessed as accumulation at G2/M phase at 0.5 to 3.9 after 24 hrs by propidium iodide-staining based flow cytometry; format: functional
HCT-116 [19] = assay: Induction of cell cycle arrest in human HCT116 cells assessed as accumulation at G2/M phase at 0.2 to 13.2 uM after 24 hrs by propidium iodide-staining based flow cytometry relative to control; format: functional
[20] = molecular target: T3, Cyclin-dependent kinase 5/CDK5 activator 1 (Homo sapiens); assay: Inhibition of CDK5/p25 in human HCT116 cells assessed as induction of dephosphorylation of FAK at Ser732 residue at 1 to 5 uM after 24 hrs by Western blot analysis; format: cell-based
HCT-116 [21] = assay: Induction of cell cycle arrest in CDK2 knocked out human HCT116 cells assessed as accumulation at G2/M phase at 0.8 to 5.9 after 24 hrs by propidium iodide-staining based flow cytometry; format: functional
HCT-116 [22] = assay: Induction of cell cycle arrest in human HCT116 cells assessed as accumulation at S phase at 2.6 to 29.6 uM after 24 hrs by propidium iodide-staining based flow cytometry; format: functional
[23] = molecular target: T4, N-lysine methyltransferase KMT5A (Homo sapiens, UniProt Q9NQR1); assay: Inhibition of SETD8 (unknown origin)
T4 sequence (Q9NQR1 whole entry): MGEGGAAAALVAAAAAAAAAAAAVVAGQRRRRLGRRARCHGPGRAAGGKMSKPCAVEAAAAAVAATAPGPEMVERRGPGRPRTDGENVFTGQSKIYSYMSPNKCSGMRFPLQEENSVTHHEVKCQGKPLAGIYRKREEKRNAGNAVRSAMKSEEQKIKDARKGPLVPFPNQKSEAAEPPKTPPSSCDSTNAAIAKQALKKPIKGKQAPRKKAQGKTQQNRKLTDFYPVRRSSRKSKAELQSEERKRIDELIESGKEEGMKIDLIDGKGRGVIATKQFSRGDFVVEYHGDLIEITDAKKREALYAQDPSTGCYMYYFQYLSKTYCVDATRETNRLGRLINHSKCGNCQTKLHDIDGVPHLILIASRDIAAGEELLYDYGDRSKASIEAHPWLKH

HCT-116 [24] = assay: Induction of cell cycle arrest in human HCT116 cells assessed as accumulation at G1 phase at 0.03 to 0.8 uM after 24 hrs by propidium iodide-staining based flow cytometry; format: functional
HCT-116 [25] = assay: Induction of cell cycle arrest in human HCT116 cells assessed as accumulation at G2/M phase at 0.03 to 0.8 uM after 24 hrs by propidium iodide-staining based flow cytometry; format: functional

Chain of Cyclin-dependent kinase 1/cyclin B1 (P06493 whole entry): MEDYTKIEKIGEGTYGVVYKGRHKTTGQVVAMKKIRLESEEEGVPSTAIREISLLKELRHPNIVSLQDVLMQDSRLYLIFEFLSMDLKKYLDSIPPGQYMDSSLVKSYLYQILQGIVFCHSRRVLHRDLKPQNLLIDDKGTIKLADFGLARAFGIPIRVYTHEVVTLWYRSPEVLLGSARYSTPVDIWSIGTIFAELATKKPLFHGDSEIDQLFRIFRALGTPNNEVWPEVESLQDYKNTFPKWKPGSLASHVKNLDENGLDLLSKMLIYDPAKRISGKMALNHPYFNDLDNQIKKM
Chain of Cyclin-dependent kinase 1/cyclin B1 (P14635 whole entry, further chain): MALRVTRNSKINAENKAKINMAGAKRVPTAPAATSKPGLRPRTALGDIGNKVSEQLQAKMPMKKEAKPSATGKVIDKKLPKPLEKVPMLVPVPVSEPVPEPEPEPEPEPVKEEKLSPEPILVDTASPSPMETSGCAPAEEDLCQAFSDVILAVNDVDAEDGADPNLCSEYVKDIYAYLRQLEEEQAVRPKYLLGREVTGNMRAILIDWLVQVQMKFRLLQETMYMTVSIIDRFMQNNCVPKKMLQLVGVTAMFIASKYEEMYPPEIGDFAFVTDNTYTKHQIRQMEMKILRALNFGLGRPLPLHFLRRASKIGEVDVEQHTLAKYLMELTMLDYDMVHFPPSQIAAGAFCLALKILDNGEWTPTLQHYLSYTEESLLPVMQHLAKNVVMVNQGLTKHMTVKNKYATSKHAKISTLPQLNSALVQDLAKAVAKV
Chain of Cyclin-dependent kinase 4/cyclin D1 (P11802 whole entry): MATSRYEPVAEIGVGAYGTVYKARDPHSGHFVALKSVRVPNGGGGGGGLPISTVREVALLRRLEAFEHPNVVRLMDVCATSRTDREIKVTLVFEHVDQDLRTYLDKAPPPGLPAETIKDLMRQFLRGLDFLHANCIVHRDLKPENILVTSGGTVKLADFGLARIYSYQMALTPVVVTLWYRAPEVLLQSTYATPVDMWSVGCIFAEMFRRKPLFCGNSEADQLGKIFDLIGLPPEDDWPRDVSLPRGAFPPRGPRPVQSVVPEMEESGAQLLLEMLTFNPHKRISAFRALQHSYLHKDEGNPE
Chain of Cyclin-dependent kinase 4/cyclin D1 (P24385 whole entry, further chain): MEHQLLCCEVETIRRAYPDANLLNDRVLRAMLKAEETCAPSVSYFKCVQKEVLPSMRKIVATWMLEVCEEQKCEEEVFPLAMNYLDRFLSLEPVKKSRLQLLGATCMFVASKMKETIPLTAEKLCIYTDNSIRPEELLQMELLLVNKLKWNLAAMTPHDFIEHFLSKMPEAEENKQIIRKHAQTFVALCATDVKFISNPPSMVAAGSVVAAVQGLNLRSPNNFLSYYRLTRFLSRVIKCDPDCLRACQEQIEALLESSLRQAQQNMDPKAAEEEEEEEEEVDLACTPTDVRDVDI
Chain of Cyclin-dependent kinase 5/CDK5 activator 1 (Q00535 whole entry): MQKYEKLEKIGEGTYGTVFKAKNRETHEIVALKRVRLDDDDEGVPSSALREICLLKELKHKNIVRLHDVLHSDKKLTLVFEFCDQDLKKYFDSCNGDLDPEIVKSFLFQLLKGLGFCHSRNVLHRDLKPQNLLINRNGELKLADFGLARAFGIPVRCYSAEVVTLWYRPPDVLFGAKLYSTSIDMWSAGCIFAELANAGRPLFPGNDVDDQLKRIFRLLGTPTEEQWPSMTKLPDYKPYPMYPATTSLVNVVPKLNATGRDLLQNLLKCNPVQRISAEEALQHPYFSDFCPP
Chain of Cyclin-dependent kinase 5/CDK5 activator 1 (Q15078 whole entry, further chain): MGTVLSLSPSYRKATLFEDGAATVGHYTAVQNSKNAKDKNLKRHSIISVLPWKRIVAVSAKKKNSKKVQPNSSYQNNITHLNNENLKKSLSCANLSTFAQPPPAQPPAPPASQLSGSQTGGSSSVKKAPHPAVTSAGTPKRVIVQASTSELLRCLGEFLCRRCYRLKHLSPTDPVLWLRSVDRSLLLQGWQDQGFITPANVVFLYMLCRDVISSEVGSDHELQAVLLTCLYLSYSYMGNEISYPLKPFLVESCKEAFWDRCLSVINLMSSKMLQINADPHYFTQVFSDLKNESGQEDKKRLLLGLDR
Chain of CDK7/Cyclin H/MNAT1 (P51946 whole entry): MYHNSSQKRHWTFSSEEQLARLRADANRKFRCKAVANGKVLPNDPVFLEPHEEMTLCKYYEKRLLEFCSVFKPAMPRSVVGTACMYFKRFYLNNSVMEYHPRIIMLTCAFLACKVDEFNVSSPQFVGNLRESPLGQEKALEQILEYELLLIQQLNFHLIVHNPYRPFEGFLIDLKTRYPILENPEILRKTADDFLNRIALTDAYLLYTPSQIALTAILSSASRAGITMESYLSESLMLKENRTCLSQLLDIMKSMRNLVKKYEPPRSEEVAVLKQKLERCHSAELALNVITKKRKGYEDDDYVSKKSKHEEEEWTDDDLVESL
Chain of CDK7/Cyclin H/MNAT1 (P50613 whole entry): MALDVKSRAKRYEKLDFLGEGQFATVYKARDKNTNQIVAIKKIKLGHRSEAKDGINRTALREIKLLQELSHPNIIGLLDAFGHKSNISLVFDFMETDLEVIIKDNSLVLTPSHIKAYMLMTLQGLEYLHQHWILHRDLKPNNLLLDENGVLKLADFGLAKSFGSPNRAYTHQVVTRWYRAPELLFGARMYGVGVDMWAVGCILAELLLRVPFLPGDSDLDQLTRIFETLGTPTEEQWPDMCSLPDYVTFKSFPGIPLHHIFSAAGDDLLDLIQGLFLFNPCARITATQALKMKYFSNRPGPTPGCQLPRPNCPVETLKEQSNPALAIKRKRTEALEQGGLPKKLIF
Chain of CDK7/Cyclin H/MNAT1 (P51948 whole entry, further chain): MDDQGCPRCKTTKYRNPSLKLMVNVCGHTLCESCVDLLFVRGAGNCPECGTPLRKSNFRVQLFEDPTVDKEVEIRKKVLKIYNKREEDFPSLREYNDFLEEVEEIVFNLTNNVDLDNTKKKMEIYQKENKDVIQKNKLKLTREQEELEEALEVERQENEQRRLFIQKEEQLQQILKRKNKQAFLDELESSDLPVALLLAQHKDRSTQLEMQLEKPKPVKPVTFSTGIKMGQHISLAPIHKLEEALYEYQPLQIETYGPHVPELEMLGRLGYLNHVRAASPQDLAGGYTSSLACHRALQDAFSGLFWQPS
Chain of CDK9/cyclin T1 (O60563 whole entry): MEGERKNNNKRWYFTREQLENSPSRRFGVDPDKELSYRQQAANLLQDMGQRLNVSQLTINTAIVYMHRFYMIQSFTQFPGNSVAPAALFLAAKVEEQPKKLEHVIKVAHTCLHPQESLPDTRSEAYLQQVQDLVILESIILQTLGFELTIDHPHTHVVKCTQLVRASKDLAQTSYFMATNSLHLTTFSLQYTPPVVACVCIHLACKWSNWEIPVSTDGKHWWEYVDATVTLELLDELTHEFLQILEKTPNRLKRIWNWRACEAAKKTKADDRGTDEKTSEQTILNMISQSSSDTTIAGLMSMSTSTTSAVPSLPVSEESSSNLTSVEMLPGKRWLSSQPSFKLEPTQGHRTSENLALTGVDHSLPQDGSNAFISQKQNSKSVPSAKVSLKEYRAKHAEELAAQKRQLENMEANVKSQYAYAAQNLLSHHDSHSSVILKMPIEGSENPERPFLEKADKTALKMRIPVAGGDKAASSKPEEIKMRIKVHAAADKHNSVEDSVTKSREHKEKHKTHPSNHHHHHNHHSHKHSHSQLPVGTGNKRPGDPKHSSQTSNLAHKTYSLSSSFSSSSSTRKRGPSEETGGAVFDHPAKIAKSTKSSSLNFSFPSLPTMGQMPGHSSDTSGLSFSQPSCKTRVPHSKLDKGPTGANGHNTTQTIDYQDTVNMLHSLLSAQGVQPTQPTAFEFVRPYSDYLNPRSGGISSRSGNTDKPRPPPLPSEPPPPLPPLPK
Chain of CDK9/cyclin T1 (P50750 whole entry): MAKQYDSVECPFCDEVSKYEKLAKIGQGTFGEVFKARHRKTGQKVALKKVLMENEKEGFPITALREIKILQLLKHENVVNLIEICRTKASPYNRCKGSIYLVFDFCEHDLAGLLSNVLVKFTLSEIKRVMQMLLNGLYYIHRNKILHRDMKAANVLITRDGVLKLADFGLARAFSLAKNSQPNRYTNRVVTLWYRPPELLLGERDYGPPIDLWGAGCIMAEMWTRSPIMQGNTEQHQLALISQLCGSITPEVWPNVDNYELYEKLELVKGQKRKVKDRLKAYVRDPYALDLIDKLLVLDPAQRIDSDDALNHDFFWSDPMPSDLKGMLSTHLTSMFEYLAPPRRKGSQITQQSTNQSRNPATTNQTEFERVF
T3 sequence (Q00535 whole entry): as the sequence (Q00535 whole entry) above
T3 sequence (Q15078 99-307 partner limits assumed): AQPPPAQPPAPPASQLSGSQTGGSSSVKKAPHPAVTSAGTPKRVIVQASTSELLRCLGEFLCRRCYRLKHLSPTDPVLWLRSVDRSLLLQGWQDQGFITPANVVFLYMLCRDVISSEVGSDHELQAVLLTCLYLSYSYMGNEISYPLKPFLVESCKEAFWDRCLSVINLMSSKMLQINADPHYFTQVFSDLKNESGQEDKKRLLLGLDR
T2 sequence (Q96GD4 whole entry): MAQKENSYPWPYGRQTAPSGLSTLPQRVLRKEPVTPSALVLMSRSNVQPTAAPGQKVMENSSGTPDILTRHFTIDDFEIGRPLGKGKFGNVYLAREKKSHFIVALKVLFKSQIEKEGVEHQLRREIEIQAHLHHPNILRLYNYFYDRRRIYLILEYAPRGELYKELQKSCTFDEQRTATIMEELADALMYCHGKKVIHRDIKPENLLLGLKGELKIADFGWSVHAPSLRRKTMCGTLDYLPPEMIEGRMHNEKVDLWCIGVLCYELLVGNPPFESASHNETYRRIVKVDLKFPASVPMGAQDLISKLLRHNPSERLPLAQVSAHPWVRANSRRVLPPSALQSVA

| Compound | IC50 (CDK2/Cyclin A2) [nM] | IC50 [8] [nM] | IC50 [9] [nM] | IC50 [10] [nM] | IC50 [11] [nM] | IC50 (CDK7/Cyclin H/MNAT1) [nM] | IC50 (CDK9/cyclin T1) [nM] | also measured |
| --- | --- | --- | --- | --- | --- | --- | --- | --- |
| CCN(CC)C(=O)c1ccc(Nc2nc(OCC3CCCCC3)c3nc[nH]c3n2)cc1 | 407000 | 5800 | 1100 | 940 | 8800 | 2300 | 5100 | Activity (HCT-116 [1]): Active; Activity (HCT-116 [2]): >=60%; IC50 (Aurora kinase A): 67 nM; inhibition (Aurora kinase B [3]): Dose-dependent effect; inhibition [4]: 44%; Ratio IC50 (Homo sapiens [5]): 6 to 10; Ratio IC50 (Homo sapiens [6]): 6 to 10; IC50 [7]: 400 nM; IC50 (Aurora kinase B [12]): 35 nM |
| CC[C@H](CO)Nc1nc(Nc2cccc(-c3ccccn3)c2)c2ncn(C(C)C)c2n1 | 290 | 3700 | 93 | > 20000 | 215 | 822 | 8000 | Activity (HCT-116 [13]): <=30% |
| OCCCNc1cc(-c2ccnc(Nc3cccc(Cl)c3)n2)ccn1 | 4 | 26 | 3 | 216 | 10 | 200 | – | Activity (HCT-116 [14]): <=30%; inhibition [15]: Active; inhibition [16]: inactive; inhibition [17]: inactive; Activity (HCT-116 [18]): Active |
| CCCCOc1c(C(=O)c2c(F)cc(C)cc2F)c[nH]c2nncc1-2 | 71 | 14 | 6 | 222 | 258 | 1600 | 1800 | Activity (HCT-116 [19]): 30 - 60%; inhibition [20]: Active; Activity (HCT-116 [21]): Active |
| Cc1ccc(NC2=CC(=O)c3sc(C)nc3C2=O)cc1 | > 20000 | > 20000 | > 20000 | 9500 | > 20000 | > 20000 | > 20000 | Activity (HCT-116 [22]): 15%; IC50 [23]: 500 nM |
| CCN1CCN(Cc2ccc(Nc3ncc(F)c(-c4cc(F)c5nc(C)n(C(C)C)c5c4)n3)nc2)CC1 [ABEMACICLIB] | – | – | – | – | – | – | – | Activity (HCT-116 [24]): Active; Activity (HCT-116 [25]): <=30% |
